Assay results: the NIST ThermoML archive (doi:10.1007/s10765-011-0978-y)
Numbers after ± are expanded uncertainties.

Details: Fluid (supercritical or subcritical phases), Falling or rolling sphere viscometry

FCC(F)(F)F [1,1,1,2-tetrafluoroethane]
viscosity [mPa·s]
Details	10000 kPa	25000 kPa	50000 kPa	100000 kPa	150000 kPa	200000 kPa	250000 kPa	300000 kPa	350000 kPa	400000 kPa
293.15 K	0.255 ± 0.0088	0.3008 ± 0.01	0.3631 ± 0.012	0.5045 ± 0.016	0.6605 ± 0.021	0.8252 ± 0.026	–	–	–	–
298.15 K	0.2368 ± 0.0079	0.2795 ± 0.0092	0.3435 ± 0.011	0.4988 ± 0.016	0.6459 ± 0.02	0.819 ± 0.026	0.9773 ± 0.03	–	–	–
313.15 K	0.207 ± 0.0071	0.2461 ± 0.0082	0.3127 ± 0.01	0.4302 ± 0.014	0.5758 ± 0.018	0.7155 ± 0.023	0.8952 ± 0.028	1.069 ± 0.035	1.25 ± 0.039	1.446 ± 0.045
323.15 K	0.1805 ± 0.0063	0.2229 ± 0.0075	0.2852 ± 0.0092	0.3946 ± 0.013	0.502 ± 0.016	0.6252 ± 0.02	0.7651 ± 0.024	0.914 ± 0.029	–	–
348.15 K	0.1405 ± 0.0051	0.1783 ± 0.006	0.2343 ± 0.0076	0.3327 ± 0.011	0.43 ± 0.013	0.5368 ± 0.017	0.6421 ± 0.02	0.7647 ± 0.024	0.8894 ± 0.028	1.04 ± 0.033
373.15 K	–	0.1531 ± 0.0052	0.2038 ± 0.0066	0.2931 ± 0.0093	0.3764 ± 0.012	0.4649 ± 0.015	0.5564 ± 0.017	0.6468 ± 0.02	0.7557 ± 0.024	0.8715 ± 0.027
398.15 K	–	–	0.1725 ± 0.0056	0.2544 ± 0.008	0.3243 ± 0.01	–	–	–	–	–
438.15 K	–	–	0.1458 ± 0.0047	0.2131 ± 0.0068	0.2789 ± 0.0087	0.3408 ± 0.011	0.3977 ± 0.012	0.4612 ± 0.014	–	–
